# Measurements as given in ChEMBL document CHEMBL1201862, “PubChem BioAssay data set” (2004).
# Active and inactive are the calls of the source.
# Key:
# [1] = molecular target: T1, Interleukin-1 receptor-associated kinase 4 (Homo sapiens, UniProt Q9NWZ3); type: functional
# T1 sequence (Q9NWZ3 whole entry): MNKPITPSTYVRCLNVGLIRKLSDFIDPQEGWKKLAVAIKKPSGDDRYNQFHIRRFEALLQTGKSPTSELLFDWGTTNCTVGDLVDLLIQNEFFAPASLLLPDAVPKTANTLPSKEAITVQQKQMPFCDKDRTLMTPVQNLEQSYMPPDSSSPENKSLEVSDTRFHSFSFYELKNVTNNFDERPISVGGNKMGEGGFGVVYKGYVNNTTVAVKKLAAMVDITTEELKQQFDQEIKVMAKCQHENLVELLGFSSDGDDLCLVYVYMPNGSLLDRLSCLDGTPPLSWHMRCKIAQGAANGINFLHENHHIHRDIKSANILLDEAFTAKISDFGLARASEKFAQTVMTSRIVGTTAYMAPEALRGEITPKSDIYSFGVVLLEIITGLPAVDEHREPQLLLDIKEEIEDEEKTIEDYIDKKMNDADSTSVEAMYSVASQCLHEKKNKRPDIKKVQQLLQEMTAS
# [2] = molecular target: Protein kinase C gamma type (Homo sapiens, UniProt P05129); type: functional
# [3] = molecular target: G protein-coupled receptor kinase 5 (Homo sapiens, UniProt P34947); test: Navigating the Kinome. Panel member name: GPRK5; type: functional
# [4] = molecular target: Lymphokine-activated killer T-cell-originated protein kinase (Homo sapiens, UniProt Q96KB5); type: functional;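 note: value comes from a kinase panel screen in which TOPK was one of the panel members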
# [5] = molecular target: ATP-dependent molecular chaperone HSP82 (Candida albicans (strain WO-1) (Yeast), UniProt C4YTQ8); test: loss of DOC-induced GRE-beta-galactosidase reporter signal, dose response, Hsp90 inhibitor project, S. cerevisiae, luminescence (AID 2400); type: functional, cell-based;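 note: beta-galactosidase luminescence from glucocorticoid response element reporter as proxy for Hsp90 function; inhibitor potency where signal loss means Hsp90 inhibition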
# Chain of ATP-dependent molecular chaperone HSP82 (C4YTQ8 whole entry): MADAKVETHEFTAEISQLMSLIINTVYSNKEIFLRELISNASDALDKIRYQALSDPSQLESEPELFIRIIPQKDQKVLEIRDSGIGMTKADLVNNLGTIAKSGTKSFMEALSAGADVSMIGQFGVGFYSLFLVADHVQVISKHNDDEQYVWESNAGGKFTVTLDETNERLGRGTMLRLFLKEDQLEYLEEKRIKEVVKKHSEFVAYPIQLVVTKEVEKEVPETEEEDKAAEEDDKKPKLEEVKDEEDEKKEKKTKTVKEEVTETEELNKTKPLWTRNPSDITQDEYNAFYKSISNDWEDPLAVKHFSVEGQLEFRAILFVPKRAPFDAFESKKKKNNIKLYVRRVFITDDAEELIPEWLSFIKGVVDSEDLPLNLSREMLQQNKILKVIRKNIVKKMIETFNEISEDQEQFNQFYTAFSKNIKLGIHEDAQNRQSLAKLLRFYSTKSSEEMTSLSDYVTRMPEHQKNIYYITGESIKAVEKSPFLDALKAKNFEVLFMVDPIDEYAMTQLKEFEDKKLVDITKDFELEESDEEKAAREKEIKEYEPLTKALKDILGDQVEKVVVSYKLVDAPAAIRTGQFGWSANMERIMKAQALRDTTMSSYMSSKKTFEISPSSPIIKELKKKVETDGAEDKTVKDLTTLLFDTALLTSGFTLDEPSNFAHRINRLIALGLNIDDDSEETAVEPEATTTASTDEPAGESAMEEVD
# Chain of Lymphokine-activated killer T-cell-originated protein kinase (Q96KB5 whole entry): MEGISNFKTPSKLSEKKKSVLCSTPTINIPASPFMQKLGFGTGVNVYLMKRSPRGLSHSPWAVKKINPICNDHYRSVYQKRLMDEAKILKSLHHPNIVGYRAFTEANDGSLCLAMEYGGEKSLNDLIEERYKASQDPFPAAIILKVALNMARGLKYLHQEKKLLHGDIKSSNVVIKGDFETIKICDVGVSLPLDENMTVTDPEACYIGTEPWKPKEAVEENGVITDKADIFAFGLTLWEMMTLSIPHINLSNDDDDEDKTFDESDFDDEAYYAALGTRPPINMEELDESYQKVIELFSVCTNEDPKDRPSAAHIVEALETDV
# Chain of G protein-coupled receptor kinase 5 (P34947 whole entry): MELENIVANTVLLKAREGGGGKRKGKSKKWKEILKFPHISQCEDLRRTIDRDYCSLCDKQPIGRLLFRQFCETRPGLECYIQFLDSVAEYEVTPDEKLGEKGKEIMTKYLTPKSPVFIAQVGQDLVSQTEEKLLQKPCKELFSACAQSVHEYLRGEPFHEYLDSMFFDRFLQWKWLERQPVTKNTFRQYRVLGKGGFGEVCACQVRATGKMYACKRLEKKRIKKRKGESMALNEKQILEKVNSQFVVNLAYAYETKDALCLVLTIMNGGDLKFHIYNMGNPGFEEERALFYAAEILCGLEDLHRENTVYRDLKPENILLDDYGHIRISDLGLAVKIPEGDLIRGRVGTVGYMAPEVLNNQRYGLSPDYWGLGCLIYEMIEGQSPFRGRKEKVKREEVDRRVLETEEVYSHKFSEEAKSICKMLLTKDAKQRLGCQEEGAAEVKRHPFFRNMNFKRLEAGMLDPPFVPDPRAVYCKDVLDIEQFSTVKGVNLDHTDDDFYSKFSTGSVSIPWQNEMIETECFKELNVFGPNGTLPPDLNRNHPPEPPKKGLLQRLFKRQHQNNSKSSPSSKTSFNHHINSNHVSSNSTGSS
Ki [1],Ki [2],Ki [3],Compound,Ki [4],EC50 [5]
> 10 µM (inactive),1.26 µM (active),> 3.98 µM (inactive),CS(=O)(=O)N(Cc1ccc2[nH]c(=O)c3cccn3c2c1)C1CC1,2 µM (active),–
–,–,–,Cc1cc(NC(c2ccc(Cl)cc2)c2ccc3cccnc3c2O)no1 (stereo not given),–,20.7 µM (active)
